± gives the expanded uncertainty stated by the source.

The source of these data is the NIST ThermoML archive (doi:10.1021/je049878m).

The conditions of the series: Crystal.

Turning to `CC(=O)Nc1ccc(C)cc1` [1-acetamido-4-methylbenzene], the Normal melting temperature was found to be 151 ± 1 °C.

With `COc1cc(OC)c(C(=O)O)cc1OC` [2,4,5-trimethoxybenzoic acid], the Normal melting temperature came out at 144.8 ± 1 °C.

For `Nc1ccccc1O` [2-hydroxybenzenamine], the Normal melting temperature is 174.5 ± 1 °C.

In the case of `COc1cc(C(=O)O)cc(OC)c1OC` [3,4,5-trimethoxybenzoic acid], the Normal melting temperature worked out at 171.4 ± 1 °C.

As to `Nc1cccc(O)c1` [3-hydroxybenzenamine], the Normal melting temperature worked out at 123.7 ± 1 °C.

On to `CC(=O)Nc1ccccc1C` [o-acetotoluide], for which the Normal melting temperature was found to be 109.6 ± 1 °C.
